Laboratory results taken from patent publication US20120045500A1, “NOVEL DIOXO-IMIDAZOLIDINE DERIVATIVES, WHICH INHIBIT THE ENZYME SOAT-1, AND PHARMACEUTICAL AND COSMETIC COMPOSITIONS CONTAINING THEM” (GALDERMA RESEARCH & DEVELOPMENT, priority 2009, published 2012).

Molecular target: T1, enzyme ACAT-1 (Homo sapiens, UniProt P35610)
T1 construct: endogenous in cells; host or cells: HepG2
T1 sequence (P35610 1-550): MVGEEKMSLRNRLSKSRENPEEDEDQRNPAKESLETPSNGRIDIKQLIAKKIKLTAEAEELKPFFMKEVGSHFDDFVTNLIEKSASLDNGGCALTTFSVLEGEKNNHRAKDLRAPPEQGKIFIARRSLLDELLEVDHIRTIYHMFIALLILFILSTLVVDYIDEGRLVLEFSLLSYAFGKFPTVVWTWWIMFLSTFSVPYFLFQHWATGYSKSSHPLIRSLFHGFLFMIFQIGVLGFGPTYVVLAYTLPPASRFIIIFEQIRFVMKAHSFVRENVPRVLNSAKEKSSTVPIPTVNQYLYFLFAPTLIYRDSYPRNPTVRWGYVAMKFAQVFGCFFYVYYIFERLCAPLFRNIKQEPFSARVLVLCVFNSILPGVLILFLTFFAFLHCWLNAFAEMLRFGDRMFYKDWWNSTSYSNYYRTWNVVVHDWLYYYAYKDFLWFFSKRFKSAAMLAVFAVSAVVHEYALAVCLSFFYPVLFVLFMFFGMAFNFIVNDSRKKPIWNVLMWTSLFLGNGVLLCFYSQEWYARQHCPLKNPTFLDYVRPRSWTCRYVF
Assay: HepG2 NBD-cholesterol fluorescence test for inhibitory activity towards the enzyme ACAT-1 (SOAT-1)
Assay type: cell-based
Conditions: not given
Protocol: The compounds (I) according to the invention, and also the pharmaceutically acceptable salts, solvates and/or hydrates thereof, have inhibitory properties on the enzyme SOAT-1. This inhibitory activity on the enzyme SOAT-1 is measured according to a HepG2 primary enzymatic test, as described in Example 15.
The compounds of formula (I) according to the invention were subjected to a test for evaluating their inhibitory activity towards the enzyme ACAT-1, inspired by the following publication: “Identification of ACAT1- and ACAT2-specific inhibitors using a novel, cell based fluorescence assay: individual ACAT uniqueness”, J. Lipid. Res. (2004) vol. 45, pages 378-386.
The principle of this test is based on the use of NBD-cholesterol, a cholesterol analogue whose fluorescence depends on its environment. When this molecule is in a polar environment, it is weakly fluorescent, whereas in a non-polar environment, it is strongly fluorescent. Free NBD-cholesterol becomes inserted in cell membranes and is weakly fluorescent in this polar environment. When NBD-cholesterol is esterified with ACAT, the NBD-cholesterol ester enters non-polar lipid droplets and is then strongly fluorescent.
The method below is applied: HepG2 cells are incubated in the presence of NBD-cholesterol (1 μg/ml) and of the test compound of formula (I) in black transparent-bottomed 96-well plates, at a rate of 30 000 cells per well. After incubation for 6 hours at 37° C. under 5% CO2, the medium is removed by turning upside-down and the cells are washed with twice 100 μl of PBS. After addition of 50 μl of lysis buffer (10 mM NaPO4, 1% Igepal), the plates are shaken for 5 minutes and the fluorescence is read (excitation at 490 nm, emission at 540 nm) on a Fusion machine (Perkin-Elmer).

Row | SMILES | IC50 [nM]
1 | CC(=O)N1CCC2(CC1)C(=O)N(CC(=O)Nc1c(C(C)C)cccc1C(C)C)C(=O)N2c1ccc(C)cc1 [Compound 1, 2-(8-acetyl-2,4-dioxo-1-p-tolyl-1,3,8-triazaspiro[4.5]dec-3-yl)-N-(2,6-diisopropylphenyl)acetamide] | 1600
2 | Cc1ccc(N2C(=O)N(CC(=O)Nc3c(C(C)C)cccc3C(C)C)C(=O)C23CCN(C(=O)OC(C)(C)C)CC3)cc1 [Compound 2, 3-[(2,6-diisopropylphenylcarbamoyl)methyl]-2,4-dioxo-1-p-tolyl-1,3,8-triazaspiro[4.5]decane-8-carboxylic acid tert-butyl ester] | 29
3 | Cc1ccc(N2C(=O)N(CC(=O)Nc3c(C(C)C)cccc3C(C)C)C(=O)C23CCN(C(=O)c2ccccc2)CC3)cc1 [Compound 3, 2-(8-benzoyl-2,4-dioxo-1-p-tolyl-1,3,8-triazaspiro[4.5]dec-3-yl)-N-(2,6-diisopropylphenyl)acetamide] | 86
4 | Cc1ccc(N2C(=O)N(CC(=O)Nc3c(C(C)C)cccc3C(C)C)C(=O)C23CCN(Cc2ccccc2)CC3)cc1 [Compound 4, 2-(8-benzyl-2,4-dioxo-1-p-tolyl-1,3,8-triazaspiro[4.5]dec-3-yl)-N-(2,6-diisopropylphenyl)acetamide] | 5.8
5 | Cc1ccc(N2C(=O)N(CC(=O)Nc3c(C(C)C)cccc3C(C)C)C(=O)C23CCN(C)CC3)cc1 [Compound 5, N-(2,6-diisopropylphenyl)-2-(8-methyl-2,4-dioxo-1-p-tolyl-1,3,8-triazaspiro[4.5]dec-3-yl)acetamide] | 20

Same assay, conditions: HepG2 cells, NBD-cholesterol 1 μg/ml, incubation 6 hours at 37° C., fluorescence read (490/540 nm); read-out: IC50

Row | SMILES | IC50 [nM]
6 | Cc1ccc(N2C(=O)N(CC(=O)Nc3c(C(C)C)cccc3C(C)C)C(=O)C23CCC(O)CC3)cc1 (stereo not drawn) [Compound 6, N-(2,6-Diisopropylphenyl)-2-(8-hydroxy-2,4-dioxo-1-p-tolyl-1,3-diazaspiro[4.5]dec-3-yl)acetamide] | 6.4
7 | Cc1ccc(N2C(=O)N(CC(=O)Nc3c(C(C)C)cccc3C(C)C)C(=O)C23CCSCC3)cc1 [Compound 7, N-(2,6-diisopropylphenyl)-2-(2,4-dioxo-1-p-tolyl-8-thia-1,3-diazaspiro[4.5]dec-3-yl)acetamide] | 1.8
8 | Cc1ccc(N2C(=O)N(CC(=O)Nc3c(C(C)C)cccc3C(C)C)C(=O)C23CCC(F)(F)CC3)cc1 [Compound 8, 2-(8,8-difluoro-2,4-dioxo-1-p-tolyl-1,3-diazaspiro[4.5]dec-3-yl)-N-(2,6-diisopropylphenyl)acetamide] | 1.5
9 | Cc1ccc(N2C(=O)N(CC(=O)Nc3c(C(C)C)cccc3C(C)C)C(=O)C23CCOCC3)cc1 [Compound 9, N-(2,6-diisopropylphenyl)-2-(2,4-dioxo-1-p-tolyl-8-oxa-1,3-diazaspiro[4.5]dec-3-yl)acetamide] | 0.4
10 | CCc1cccc(CC)c1NC(=O)CN1C(=O)N(c2ccc(C)cc2)C2(CCOCC2)C1=O [Compound 11, N-(2,6-diethylphenyl)-2-(2,4-dioxo-1-p-tolyl-8-oxa-1,3-diazaspiro[4.5]dec-3-yl)acetamide] | 9.4

System: not given
Assay: not given
Conditions: not given

Row | SMILES | melting point [°C]
11 | CC(=O)N1CCC2(CC1)C(=O)N(CC(=O)Nc1c(C(C)C)cccc1C(C)C)C(=O)N2c1ccc(C)cc1 [Compound 1, 2-(8-acetyl-2,4-dioxo-1-p-tolyl-1,3,8-triazaspiro[4.5]dec-3-yl)-N-(2,6-diisopropylphenyl)acetamide] | 136 to 138
12 | Cc1ccc(N2C(=O)N(CC(=O)Nc3c(C(C)C)cccc3C(C)C)C(=O)C23CCC(O)CC3)cc1 (stereo not drawn) [Compound 6, N-(2,6-Diisopropylphenyl)-2-(8-hydroxy-2,4-dioxo-1-p-tolyl-1,3-diazaspiro[4.5]dec-3-yl)acetamide] | 142 to 144
